Data from article PMC6940761, “Novel Diels–Alder Type Adducts from Morus alba Root Bark Targeting Human Monoamine Oxidase and Dopaminergic Receptors for the Management of Neurodegenerative Diseases” (International Journal of Molecular Sciences, 2019).
Several values for one entry are separate records, joined by “and”; a condition that tells them apart may be missing. Equal values may be shown once. Read-outs that look alike come from different tables or passages of the source.

What was measured:
[1] = target: T1, human dopamine D4 receptor (hD4R) (Homo sapiens, UniProt P21917); assay: cell-based functional GPCR assay, cAMP modulation, CHO-D4R; settings: for % Stimulation of control agonist response: D4 (h), 100 µM test compound, control 300 nM DA; for agonist response (%): D4R, 25 µM test compound; for inhibition at 100 µM: read-out: % Inhibition of control agonist response
T1 sequence (P21917 1-419): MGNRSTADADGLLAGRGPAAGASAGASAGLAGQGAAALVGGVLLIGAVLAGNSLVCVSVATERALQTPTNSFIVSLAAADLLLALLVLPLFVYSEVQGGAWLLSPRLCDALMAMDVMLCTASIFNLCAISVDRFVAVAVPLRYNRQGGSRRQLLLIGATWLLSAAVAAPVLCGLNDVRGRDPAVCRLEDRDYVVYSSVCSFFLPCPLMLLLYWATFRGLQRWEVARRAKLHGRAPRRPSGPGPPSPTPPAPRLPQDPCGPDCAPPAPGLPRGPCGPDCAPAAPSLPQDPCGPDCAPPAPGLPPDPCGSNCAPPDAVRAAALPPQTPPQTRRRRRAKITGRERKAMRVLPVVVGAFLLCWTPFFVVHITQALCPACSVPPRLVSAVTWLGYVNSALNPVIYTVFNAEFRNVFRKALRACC

[2] = target: T2, Human Monoamine Oxidase A (hMAO-A) (Homo sapiens, UniProt P21397); assay: hMAO-A inhibition, MAO-Glo chemiluminescent assay and enzyme kinetics; type: biochemical; settings: for Inhibition Type: Lineweaver–Burk and Dixon plots
T2 construct: purchased Sigma-Aldrich
T2 sequence (P21397 1-527): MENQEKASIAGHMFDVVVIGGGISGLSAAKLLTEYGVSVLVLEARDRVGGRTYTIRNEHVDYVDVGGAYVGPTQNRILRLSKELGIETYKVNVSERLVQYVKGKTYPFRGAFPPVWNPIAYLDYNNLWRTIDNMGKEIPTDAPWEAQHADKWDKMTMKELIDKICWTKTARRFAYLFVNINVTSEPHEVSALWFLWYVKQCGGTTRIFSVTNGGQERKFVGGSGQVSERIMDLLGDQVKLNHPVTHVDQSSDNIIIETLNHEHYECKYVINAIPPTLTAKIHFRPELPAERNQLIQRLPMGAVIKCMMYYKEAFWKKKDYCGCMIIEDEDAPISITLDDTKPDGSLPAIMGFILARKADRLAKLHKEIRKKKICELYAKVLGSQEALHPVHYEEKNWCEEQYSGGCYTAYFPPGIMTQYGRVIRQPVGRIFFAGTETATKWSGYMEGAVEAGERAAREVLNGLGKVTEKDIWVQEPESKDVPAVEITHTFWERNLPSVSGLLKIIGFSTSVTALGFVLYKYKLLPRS

[3] = target: human dopamine D3 receptor (hD3R) (Homo sapiens, UniProt P35462); assay: cell-based functional GPCR assay, cAMP modulation, CHO-D3R; settings: for inhibition at 100 µM: read-out: % Inhibition of control agonist response; for % Stimulation of control agonist response: D3 (h), 100 µM test compound, control 300 nM DA; for agonist response (%): D3R, 25 µM test compound
[4] = target: T3, human dopamine D2L receptor (hD2LR) (Homo sapiens, UniProt P14416); assay: cell-based functional GPCR assay, Ca2+ mobilization, CHO-D2LR; settings: for inhibition at 100 µM / % Stimulation of control agonist response: D2L (h), 100 µM test compound; for inhibition at 100 µM: control 700 nM DA, read-out: % Inhibition of control agonist response (converted); for % Stimulation of control agonist response: control 10 μM DA; for inhibition at 25 µM: D2LR, 25 µM test compound, read-out: % inhibition of DA response
T3 construct: host or cells: CHO (CHO-D2LR)

hMAO = assay: initial hMAO activity screen at 100 µg/mL (MAO-Glo); type: biochemical, human; settings: isozyme not stated
[5] = target: human dopamine D1 receptor (hD1R) (Homo sapiens, UniProt P21728); assay: cell-based functional GPCR assay, cAMP modulation, CHO-D1R; settings: for % Stimulation of control agonist response: D1 (h), 100 µM test compound, control 10 μM DA; for inhibition at 100 µM: read-out: % Inhibition of control agonist response; for inhibition at 25 µM: read-out: % inhibition of DA response
[6] = target: T4, Human Monoamine Oxidase B (hMAO-B) (Homo sapiens, UniProt P27338); assay: hMAO-B inhibition, MAO-Glo chemiluminescent assay and enzyme kinetics; type: biochemical; settings: for Inhibition Type: Lineweaver–Burk and Dixon plots; for IC50: log dose-inhibition curve, triplicate, read-out: IC50 (μM, Mean ± SD)
T4 construct: purchased Sigma-Aldrich
T4 sequence (P27338 1-520): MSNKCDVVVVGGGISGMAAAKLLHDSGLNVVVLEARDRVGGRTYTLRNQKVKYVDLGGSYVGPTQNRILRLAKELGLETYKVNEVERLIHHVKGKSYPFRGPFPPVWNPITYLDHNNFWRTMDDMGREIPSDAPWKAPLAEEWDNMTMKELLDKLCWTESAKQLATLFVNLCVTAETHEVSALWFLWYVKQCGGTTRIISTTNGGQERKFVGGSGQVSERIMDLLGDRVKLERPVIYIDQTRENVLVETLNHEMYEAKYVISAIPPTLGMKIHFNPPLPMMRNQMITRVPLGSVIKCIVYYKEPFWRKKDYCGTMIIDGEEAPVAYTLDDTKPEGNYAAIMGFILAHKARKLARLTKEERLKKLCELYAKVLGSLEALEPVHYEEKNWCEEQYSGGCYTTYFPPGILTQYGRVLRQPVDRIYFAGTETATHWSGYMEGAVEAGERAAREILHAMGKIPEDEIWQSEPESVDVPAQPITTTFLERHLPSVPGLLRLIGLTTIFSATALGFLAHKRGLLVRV

[7] = hMAO-A, Dixon plot, read-out: Ki Value
[8] = hMAO-A, log dose-inhibition curve, triplicate, read-out: IC50 (μM, Mean ± SD)
[9] = hD2LR antagonist effect, read-out: IC50 (inhibition of control agonist response)

human dopamine D1 receptor (hD1R), sequence (P21728 whole entry): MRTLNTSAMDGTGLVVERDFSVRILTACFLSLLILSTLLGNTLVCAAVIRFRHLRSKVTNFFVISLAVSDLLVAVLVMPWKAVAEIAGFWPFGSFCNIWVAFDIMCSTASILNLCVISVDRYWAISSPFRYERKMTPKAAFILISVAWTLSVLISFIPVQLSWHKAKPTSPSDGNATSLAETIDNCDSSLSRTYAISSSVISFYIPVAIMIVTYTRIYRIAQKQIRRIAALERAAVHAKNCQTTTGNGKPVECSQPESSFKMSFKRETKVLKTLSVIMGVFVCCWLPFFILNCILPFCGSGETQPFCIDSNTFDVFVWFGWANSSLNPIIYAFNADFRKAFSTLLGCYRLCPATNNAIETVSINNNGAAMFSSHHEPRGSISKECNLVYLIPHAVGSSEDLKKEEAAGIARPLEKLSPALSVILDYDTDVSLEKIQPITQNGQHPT
human dopamine D3 receptor (hD3R), sequence (P35462 whole entry): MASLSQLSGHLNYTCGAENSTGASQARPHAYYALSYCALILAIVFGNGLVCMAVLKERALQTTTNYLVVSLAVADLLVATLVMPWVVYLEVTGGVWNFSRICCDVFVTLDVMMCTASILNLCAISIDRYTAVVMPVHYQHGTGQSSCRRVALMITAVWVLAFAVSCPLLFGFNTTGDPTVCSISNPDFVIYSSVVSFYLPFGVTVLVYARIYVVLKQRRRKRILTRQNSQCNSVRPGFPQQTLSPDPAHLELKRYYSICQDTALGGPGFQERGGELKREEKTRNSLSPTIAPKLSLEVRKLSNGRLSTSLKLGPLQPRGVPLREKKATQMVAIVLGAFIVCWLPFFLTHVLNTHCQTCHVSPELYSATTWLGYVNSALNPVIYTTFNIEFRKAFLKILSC
T3 sequence (P14416 whole entry): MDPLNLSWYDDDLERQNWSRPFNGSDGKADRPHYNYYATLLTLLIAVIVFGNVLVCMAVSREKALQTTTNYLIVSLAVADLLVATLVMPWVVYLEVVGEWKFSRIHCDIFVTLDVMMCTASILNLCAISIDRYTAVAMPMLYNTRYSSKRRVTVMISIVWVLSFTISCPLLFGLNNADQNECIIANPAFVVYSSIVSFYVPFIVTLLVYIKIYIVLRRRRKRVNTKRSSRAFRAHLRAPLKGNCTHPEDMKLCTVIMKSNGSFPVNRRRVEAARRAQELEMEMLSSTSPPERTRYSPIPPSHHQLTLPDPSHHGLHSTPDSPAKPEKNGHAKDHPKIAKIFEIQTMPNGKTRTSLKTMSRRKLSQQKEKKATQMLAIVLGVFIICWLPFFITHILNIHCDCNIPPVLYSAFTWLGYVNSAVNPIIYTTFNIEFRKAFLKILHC

% Stimulation of control agonist response [1] | inhibition at 100 µM [1] [%] | Inhibition Type ([2]; hMAO-A) | EC50 [3] [µM] | inhibition at 100 µM [3] [%] | inhibition at 100 µM [4] [%] | % Stimulation of control agonist response [4] | inhibition at 25 µM [4] [%] | IC50 [5] [µM] | % Stimulation of control agonist response [5] | inhibition at 100 µM [5] [%] | inhibition at 25 µM [5] [%] | Inhibition Type [6] | IC50 [6] [µM] | Ki [2, 7] [µM] | IC50 [2, 8] [µM] | SMILES | EC50 [1] [µM] | agonist response (%) [1] [%] | % inhibition of hMAO activity (hMAO) [%] | Ki ([6]; Dixon plot, read-out: Ki Value) [µM] | other results
46.10% and 46.10 ± 1.76% | 26.9 | Competitive | 12.6 | -13.4 | 78.5 | 4.10 ± 1.06% | 81.1 | 7.16 | INTER | 67.8 | 66.8 | mixed type | 90.6 ± 1.72 | 46.9 ± 4.12 | 114 ± 2.3 | Cc1cc2c3c(c1)-c1c(O)cc(-c4cc5ccc(O)cc5o4)cc1OC3(c1ccc(O)cc1O)Oc1cc(O)ccc1-2 (stereo not drawn) [Compound 3, albanol B] | – | – | 74.85 | – | % Stimulation of control agonist response [3]: 102.8% and 102.8 ± 1.36%; agonist response (%) [3]: 94.93%; IC50 [4, 9]: 18.4 µM; Kiu (binding constant with enzyme-substrate complex) ([6]; secondary plot): 186.2 ± 10.26 µM; Ki ([6]; secondary plot, read-out: Kic (binding constant with free enzyme)): 55.2 ± 7.79 µM
86.30% and 86.30 ± 0.99% | -20.8 | Competitive | 15.1 | -28.7 | 101 | 7.10 ± 1.47% | 97.2 | 6.13 | 17.2 ± 8.4% | 87.7 | 92.3 | Noncompetitive | 18.1 ± 1.06 | 27 ± 3.98 | 54.79 ± 0.03 | CC1=C[C@H]2c3c(O)cc(-c4cc5ccc(O)cc5o4)cc3O[C@@]3(c4ccc(O)cc4O)Oc4cc(O)ccc4[C@H](C1)[C@@H]23 [Compound 1, mulberrofuran G] | 17.2 | 63.00 | 93.87 | 17 ± 3.31 | % Stimulation of control agonist response [3]: 119.9% and 119.9 ± 2.44%; agonist response (%) [3]: 71.92%; IC50 [4, 9]: 2.41 µM

SMILES | % Stimulation of control agonist response [1] | inhibition at 100 µM [1] [%] | Inhibition Type ([2]; hMAO-A) | EC50 [3] [µM] | inhibition at 100 µM [3] [%] | inhibition at 100 µM [4] [%] | % Stimulation of control agonist response [4] | inhibition at 25 µM [4] [%] | IC50 [5] [µM] | % Stimulation of control agonist response [5] | inhibition at 100 µM [5] [%] | inhibition at 25 µM [5] [%] | Inhibition Type [6] | IC50 [6] [µM] | Ki [2, 7] [µM] | IC50 [2, 8] [µM] | EC50 [1] [µM] | agonist response (%) [1] [%] | % inhibition of hMAO activity (hMAO) [%] | Ki ([6]; Dixon plot, read-out: Ki Value) [µM] | other results
CC(C)=CCc1c(-c2ccc(O)cc2O)oc2c(C3C=C(C)CC(c4ccc(O)cc4O)C3C(=O)c3ccc(O)cc3O)c(O)cc(O)c2c1=O (stereo not drawn) [Compound 2, kuwanon G] | 90.45% and 90.45 ± 0.14% | -29.6 | Competitive | 20.2 | -27.4 | 99.2 | NSI | 33.7 | 16.5 | 0.85 ± 0.24% | 98.8 | 91.1 | Noncompetitive | 57.7 ± 2.12 | – | – | 21 | 58.66 | 99.05 | 52.1 ± 5.56 | IC50 [2]: 70.2 ± 2.6 µM; Ki [2]: 28.3 ± 2.02 µM; IC50 [4]: 31.2 µM
